# Publication PMC6416309, “Crystal structures of thiamine monophosphate kinase from Acinetobacter baumannii in complex with substrates and products” (Scientific Reports, 2019)
# T1: AbThiL (ThiL, thiamine monophosphate kinase) (Acinetobacter baumannii, UniProt A0A0D5YC82)
# T1 construct: non-cleavable N-terminal His6-tag (vector pBG1861), expressed in E. coli Rosetta BL21(DE3)R3; modelled Met1/Ala2 to Phe304/C-terminal Ala305; homodimer, active site at dimer interface
# T1 sequence (A0A0D5YC82 1-305): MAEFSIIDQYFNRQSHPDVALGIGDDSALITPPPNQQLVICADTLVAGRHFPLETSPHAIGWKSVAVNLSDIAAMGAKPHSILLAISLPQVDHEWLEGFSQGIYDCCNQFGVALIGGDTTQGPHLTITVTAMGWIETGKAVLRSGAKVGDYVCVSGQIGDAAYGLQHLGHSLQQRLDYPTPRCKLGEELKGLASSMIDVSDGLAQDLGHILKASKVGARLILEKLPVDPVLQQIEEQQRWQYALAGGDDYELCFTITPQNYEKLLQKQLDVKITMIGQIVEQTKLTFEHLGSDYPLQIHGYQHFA
# B1: Thiamine monophosphate kinase (ThiL) from Acinetobacter baumannii (enzyme, UniProt A0A0D5YC82 1-305, looked up)
# chain: T1 sequence (A0A0D5YC82 1-305)
# notes: Thiamine monophosphate kinase (ThiL), Acinetobacter baumannii strain AB5075-UW, gene amplified from genomic DNA; The vector pBG1861 provides a non-cleavable N-terminal His6-tag; also called AbThiL; not shown: His6, N-terminal, kept
# Legend:
# [1] = target: T1, AbThiL (ThiL, thiamine monophosphate kinase); experiment: X-ray crystallography (co-crystal), […] A monoclinic and […] A orthorhombic; type: binding; settings: 5 mM ADP/TPP/MgCl2, paper assigns 5CM7, 5D9U and 6MFM to the two crystal forms inconsistently
# [2] = target: T1, AbThiL (ThiL, thiamine monophosphate kinase); experiment: X-ray crystallography (co-crystal), […] A; type: binding; settings: AMPPNP alone, 5 mM AMPPNP/MgCl2, NaBr; ATP site; also with TMP in 5DD7
# [3] = target: T1, AbThiL (ThiL, thiamine monophosphate kinase); experiment: X-ray crystallography (overnight soak of AMPPNP co-crystals), […] A; type: binding; settings: ternary complex with AMPPNP; Mg2+; 5 mM AMPPNP/TMP/MgCl2; K/Na-tartrate, HEPES pH 7.5; active site at dimer interface
# [4] = target: the molecule itself; experiment: crystal structure; AbThiL co-crystallised or soaked with AMPPNP, AMPPNP/TMP or ADP/TPP and MgCl2; orthorhombic (P21212) and monoclinic (P21) crystal forms; sitting drops at 287 K
molecule,measurement,setting,value
Nc1ncnc2c1ncn2[C@@H]1O[C@H](COP(=O)(O)OP(=O)(O)O)[C@@H](O)[C@H]1O [ADP],"X-ray crystallography (co-crystal), 1.55 A monoclinic and 1.90 A orthorhombic","[1]; ternary complex with TPP, ATP/ADP site",with the products ADP/TDP (orthorhombic and monoclinic)
Nc1ncnc2c1ncn2[C@@H]1O[C@H](COP(=O)(O)OP(=O)(O)NP(=O)(O)O)[C@@H](O)[C@H]1O [AMPPNP],"X-ray crystallography (co-crystal), 1.75 A",[2],AbThiL in complex with AMPPNP alone (orthorhombic)
Cc1ncc(C[n+]2csc(CCOP(=O)(O)O)c2C)c(N)n1 [TMP],"X-ray crystallography (overnight soak of AMPPNP co-crystals), 1.70 A",[3],"AbThiL in complex with AMPPNP alone (orthorhombic), the substrate analogs AMPPNP/TMP (orthorhombic)"
Cc1ncc(C[n+]2csc(CCOP(=O)(O)OP(=O)(O)O)c2C)c(N)n1 [TPP],"X-ray crystallography (co-crystal), 1.55 A monoclinic and 1.90 A orthorhombic","[1]; ternary complex with ADP, TMP/TPP site",with the products ADP/TDP (orthorhombic and monoclinic)
B1,stoichiometry N,[4],2
